Assay results: BindingDB's records for patent US20250215012 (University of Michigan, 2025)
pIC50: −log10 of the molar value.

Target: DNA damage-binding protein 1/Protein cereblon (Homo sapiens, UniProt Q96SW2)
Experiment: Not found
Excerpt: Not found

DNA damage-binding protein 1/Protein cereblon, sequence (Q16531 whole entry): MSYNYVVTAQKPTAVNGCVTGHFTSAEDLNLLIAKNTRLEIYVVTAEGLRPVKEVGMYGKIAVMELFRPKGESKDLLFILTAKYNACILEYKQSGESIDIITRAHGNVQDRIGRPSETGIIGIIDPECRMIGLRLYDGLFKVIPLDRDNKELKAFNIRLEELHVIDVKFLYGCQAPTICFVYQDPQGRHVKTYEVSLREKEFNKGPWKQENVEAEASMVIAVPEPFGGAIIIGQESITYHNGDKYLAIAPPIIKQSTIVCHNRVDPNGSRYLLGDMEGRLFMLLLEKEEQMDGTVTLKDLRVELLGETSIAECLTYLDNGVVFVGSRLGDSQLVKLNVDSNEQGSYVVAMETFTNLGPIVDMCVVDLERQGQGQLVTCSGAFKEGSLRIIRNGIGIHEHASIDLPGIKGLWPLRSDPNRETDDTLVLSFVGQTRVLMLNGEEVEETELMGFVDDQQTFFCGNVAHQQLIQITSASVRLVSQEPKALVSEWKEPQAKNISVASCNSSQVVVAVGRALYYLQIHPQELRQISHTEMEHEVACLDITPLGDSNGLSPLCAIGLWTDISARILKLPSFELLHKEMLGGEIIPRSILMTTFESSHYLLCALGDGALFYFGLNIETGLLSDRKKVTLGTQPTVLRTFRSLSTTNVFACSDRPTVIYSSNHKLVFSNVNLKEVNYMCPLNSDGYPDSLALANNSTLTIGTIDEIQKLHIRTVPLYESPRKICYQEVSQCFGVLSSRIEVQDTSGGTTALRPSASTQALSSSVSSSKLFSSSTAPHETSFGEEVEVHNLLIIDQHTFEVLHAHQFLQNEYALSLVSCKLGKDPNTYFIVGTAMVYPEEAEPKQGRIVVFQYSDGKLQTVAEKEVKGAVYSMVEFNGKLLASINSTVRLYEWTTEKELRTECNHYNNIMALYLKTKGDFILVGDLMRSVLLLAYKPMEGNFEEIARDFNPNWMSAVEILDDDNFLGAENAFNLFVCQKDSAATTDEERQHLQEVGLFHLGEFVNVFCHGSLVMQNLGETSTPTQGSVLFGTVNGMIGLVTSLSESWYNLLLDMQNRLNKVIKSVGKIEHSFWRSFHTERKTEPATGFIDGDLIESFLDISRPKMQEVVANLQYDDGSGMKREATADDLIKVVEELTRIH
DNA damage-binding protein 1/Protein cereblon, sequence (Q96SW2 whole entry): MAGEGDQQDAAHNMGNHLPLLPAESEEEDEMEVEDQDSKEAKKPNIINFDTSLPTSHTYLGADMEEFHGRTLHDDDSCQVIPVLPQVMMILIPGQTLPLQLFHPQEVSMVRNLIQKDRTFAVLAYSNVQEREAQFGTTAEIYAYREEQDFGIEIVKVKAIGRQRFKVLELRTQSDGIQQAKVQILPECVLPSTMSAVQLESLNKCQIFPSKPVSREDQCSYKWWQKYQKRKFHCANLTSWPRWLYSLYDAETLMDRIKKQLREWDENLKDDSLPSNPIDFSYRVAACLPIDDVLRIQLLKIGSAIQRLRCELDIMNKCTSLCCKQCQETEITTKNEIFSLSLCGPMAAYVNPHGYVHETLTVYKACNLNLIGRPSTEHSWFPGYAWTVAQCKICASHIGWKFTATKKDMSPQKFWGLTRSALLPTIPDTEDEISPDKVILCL

## Cn1ncc2ccc(CN3CCC4(COc5c4ccc4c5CN([C@H]5CCC(=O)NC5=O)C4=O)C(F)(F)C3)cc21 (some centres not stated) [US20250215012, Example B34]
  pIC50: 6.30 to 7.00

## O=C1CC[C@H](N2Cc3c(ccc4c3OCC43CCN(Cc4ccc5cn[nH]c5c4)CC3(F)F)C2=O)C(=O)N1 (some centres not stated) [US20250215012, Example B33]
  pIC50: 6.30 to 7.00
